Assays:
[1] = molecular target: T1, NUAK1 (Homo sapiens, UniProt O60285); assay: Nuak1 inhibition in cellulo: LATS1 stabilization by western blot; assay type: cell-based; conditions: HeLa cells treated ON; whole cell extracts, WB, compared to control
T1 construct: Reaction biology Corp (USA), service
T1 sequence (O60285 1-661): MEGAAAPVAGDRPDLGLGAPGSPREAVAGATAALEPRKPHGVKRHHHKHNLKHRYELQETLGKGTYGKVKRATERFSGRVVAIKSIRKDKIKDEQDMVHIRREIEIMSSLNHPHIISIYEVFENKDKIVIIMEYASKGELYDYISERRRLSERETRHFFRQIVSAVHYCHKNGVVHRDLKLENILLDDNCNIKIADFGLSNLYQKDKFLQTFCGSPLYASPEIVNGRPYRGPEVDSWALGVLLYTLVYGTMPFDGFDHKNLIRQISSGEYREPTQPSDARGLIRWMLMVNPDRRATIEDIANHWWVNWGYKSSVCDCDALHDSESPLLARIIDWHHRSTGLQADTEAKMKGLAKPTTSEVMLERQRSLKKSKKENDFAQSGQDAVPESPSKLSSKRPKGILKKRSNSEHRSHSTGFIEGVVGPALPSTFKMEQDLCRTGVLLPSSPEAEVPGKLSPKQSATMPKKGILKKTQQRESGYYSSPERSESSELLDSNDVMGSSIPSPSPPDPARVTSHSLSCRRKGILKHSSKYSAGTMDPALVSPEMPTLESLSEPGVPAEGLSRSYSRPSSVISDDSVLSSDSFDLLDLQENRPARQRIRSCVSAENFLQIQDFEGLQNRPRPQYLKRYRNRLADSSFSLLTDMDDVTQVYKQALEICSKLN
Method: HeLa cells were treated ON by C21 (also named CH21) and C14M and compared to the control (C0). Whole cell extracts were analyzed by WB with anti LATS1 monoclonal antibody and the loading was quantified through the tubulin signal.
Therefore the possibility of inhibiting Nuakl, in cellulo, was evaluated through the stabilization of the Large Antigen Tumour Suppressor LATS1.
Cells were treated by compounds, harvested and lyzed in 9M urea then supplemented with Laemmli sample buffer. Cell extracts were subjected to SDS-PAGE and transferred to nitrocellulose filter (GE Healthcare). After blocking with 5% non-fat milk in PBS for at least 1 hour, the membranes were incubated with the primary antibodies. The following antibodies were used: phospho-Histone H3 Ser10 (1:2000, Upstate Biotechnology), anti LAST1 (Cell signalling), anti Aurora B (epitomics) and anti alpha-tubulin (Sigma) Anti-rabbit horseradish peroxidase (1:5000, GE Healthcare) was used as secondary antibodies. Bands were visualized by ECL technique (Amersham Bioscience).

[2] = Water solubility; assay type: physicochemical
[3] = molecular target: T1, NUAK1; assay: In vitro IC50 on recombinant kinase; assay type: biochemical
Method: The efficiency of the 3-amino-ethoxy compounds to inhibit Nuak1 was determined in vitro.
The profiling was performed at the MRC (Dundee University), in duplicate, on a set of 121 kinases. The panel is representative of the major different classes of kinases. Compounds were used at the concentration of 1 μM. In vitro, IC50 were determined on recombinant kinases by Reaction biology Corp (USA).

[4] = tested on: H358 spheroids; assay: Multicellular tumour spheroid (MTS) growth; assay type: cell-based
Method: H358 cells were cultured in 3-Dimensions. At day 1, the compound was added at the concentration of 0.6 μM. The spheroid growth was measured each day and expressed as a growth ratio (Vd−Vo/Vo); d for day and o for the starting day. The evolution of the volume of the spheroids is expressed in function of the time (in days). Spheroids grown in the presence of C1 are indicated by triangles whereas rectangles indicate spheroids treated by C14; control spheroids are visualized by diamonds.
In order to get some insight in C14 effects towards organized cells, the inventors have followed H358 spheroid expansion (FIG. 9). Organized 3-dimension spheroids were treated by either C14 (0.5 μM) or C1 (0.5 μM) or DMSO (control). […] C14 was thus found efficient to prevent cell growth even when cells mimicked tissue organization.
The inventors applied the hanging-drop method to produce H358 spheroids of similar diameters. 1400 cells were suspended on the lid of an agar coated 24-petri dishes containing culture medium. 48 h later, the spheroids were transferred to the culture medium. Spheroid volumes were measured before (Day 0) and during the drug treatment (Day N). H358 spheroids were treated by compounds at the concentration of 0.6 μM. Control H358 spheroids were grown under the same conditions without drug treatment. The size of each spheroid was determined by measuring 2 diameters (d1 and d2) using an inverted microscope. The volume was calculated according to the formula: V=4/3π^3 where r=½√d1xd2. Spheroid growth was calculated by measuring the variations in volume and compared to the initial volume V0. The growth ratio was defined as (Vd−Vo)/Vo. Data are the mean of at least three determinations on different spheroids.

[5] = tested on: Quiescent H358 cells; assay: Viability of quiescent (serum-deprived) cells; assay type: cell-based; conditions: 0.5 μM, 96 hours post-treatment, absence of serum
Method: FIG. 5: Quiescent H358 cells were incubated with the compound, for 96 h, in the absence of serum. Three different concentrations of C14 were used and live cells were estimated with MTT (Promega). In the control only DMSO was added.
H358 cells were deprived in serum for 2 days and then incubated with the compound, for 96 h, still in the absence of serum. At the concentration (0.5 μM) that induced death of more than 50% of cycling cells, 90% of the cells are still alive 96 hours post-treatment (FIG. 5). C14 is thus not deleterious for quiescent cells.
Cells were drawn to quiescence by serum withdrawn. After two days of serum deprivations cells were incubated with different concentrations of compounds for 96 hours, serum being still omitted. The viability is determined as described above.

SMILES | LATS1 protein level (in words) [1] | solubility in water (in words) [2] | IC50 [3] | duration of effect on spheroid growth ([4]; 0.5 μM, 0.6 μM) | effect on 3D-H358 cell (spheroid) growth (in words) ([4]; 0.5 μM, 0.6 μM) | spheroid size at day 10 (in words) ([4]; day 10, compared with C1-treated spheroids) | cells still alive [5]
Cc1cncc2c1[nH]c1ccc3cc(OCCN(C)C)ccc3c12 [CH21, 3-(2-N,N-dimethylaminoethyloxy)-8-methyl-7H-benzo[e]pyrido(4,3-b)indole] | large increase | – | – | – | – | – | –
Cc1c[nH]c(=O)c2c1[nH]c1ccc3cc(OCCN(C)C)ccc3c12 [Compound C14, 3-(2-N,N-Dimethylaminoethoxy)-8-methyl-7H,10H-benzo[e]pyrido(4,3-b)indol-11-one] | – | water soluble | 1.4 nM | at least 5 days | affected significantly | smaller than their counterparts treated by C1 | 90%

Reference: patent US20140073637A1, “AMINO-SUBSTITUTED-ALKYLOXY-BENZO[E]PYRIDO[4,3-B]INDOLE DERIVATIVES AS NEW POTENT KINASE INHIBITORS” (INSTITUT CURIE, priority 2011, published 2014)
